In BindingDB's records for doi:10.3109/14756366.2012.709242 (Anadolu University, 2013):

Key:
Acetylcholinesterase = Acetylcholinesterase (Electrophorus electricus, UniProt O42275); test: Enzymatic Assay; conditions: pH 8; 25 °C
Method: (§1) AChE or BChE solution (50 μL) and compound solution (50 μL), which is prepared in 2% DMSO at a concentration range of 10^−1-10^−6 mM, were added to 3.0 mL phosphate buffer (pH8 ± 0.1) and incubated at 25°C for 5 min. The reaction was started by adding (DTNB) (50 μL) and ATC (10 μL) to the enzyme-inhibitor mixture. […] As a control, an identical solution of the enzyme without the inhibitor was processed following the same protocol. The blank reading contained 3.0 mL buffer, 50 μL 2% DMSO, 50 μL DTNB and 10 μL substrate. All processes were assayed in triplicate.

[1] = biological target: Carboxylic ester hydrolase (Equus caballus, UniProt Q9N1N9); test: Enzymatic Assay
Method: as §1

Sequence of Acetylcholinesterase (O42275 whole entry): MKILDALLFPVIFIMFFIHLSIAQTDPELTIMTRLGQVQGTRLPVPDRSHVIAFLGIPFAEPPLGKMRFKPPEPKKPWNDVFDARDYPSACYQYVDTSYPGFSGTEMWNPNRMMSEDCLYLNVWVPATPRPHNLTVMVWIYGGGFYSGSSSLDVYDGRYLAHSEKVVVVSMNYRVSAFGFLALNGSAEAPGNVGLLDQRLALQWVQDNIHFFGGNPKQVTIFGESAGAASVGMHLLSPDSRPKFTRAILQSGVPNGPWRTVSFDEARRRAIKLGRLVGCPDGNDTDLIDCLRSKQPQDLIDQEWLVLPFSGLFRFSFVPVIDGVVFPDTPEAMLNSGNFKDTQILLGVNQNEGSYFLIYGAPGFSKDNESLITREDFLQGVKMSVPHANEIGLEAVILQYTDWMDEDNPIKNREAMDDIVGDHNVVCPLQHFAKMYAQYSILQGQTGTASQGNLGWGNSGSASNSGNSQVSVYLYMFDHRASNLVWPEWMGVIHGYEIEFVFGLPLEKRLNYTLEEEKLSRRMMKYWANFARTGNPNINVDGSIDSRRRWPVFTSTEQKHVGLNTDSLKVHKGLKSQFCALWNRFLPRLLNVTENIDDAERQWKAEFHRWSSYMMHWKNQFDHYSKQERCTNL
Sequence of Carboxylic ester hydrolase (Q9N1N9 whole entry): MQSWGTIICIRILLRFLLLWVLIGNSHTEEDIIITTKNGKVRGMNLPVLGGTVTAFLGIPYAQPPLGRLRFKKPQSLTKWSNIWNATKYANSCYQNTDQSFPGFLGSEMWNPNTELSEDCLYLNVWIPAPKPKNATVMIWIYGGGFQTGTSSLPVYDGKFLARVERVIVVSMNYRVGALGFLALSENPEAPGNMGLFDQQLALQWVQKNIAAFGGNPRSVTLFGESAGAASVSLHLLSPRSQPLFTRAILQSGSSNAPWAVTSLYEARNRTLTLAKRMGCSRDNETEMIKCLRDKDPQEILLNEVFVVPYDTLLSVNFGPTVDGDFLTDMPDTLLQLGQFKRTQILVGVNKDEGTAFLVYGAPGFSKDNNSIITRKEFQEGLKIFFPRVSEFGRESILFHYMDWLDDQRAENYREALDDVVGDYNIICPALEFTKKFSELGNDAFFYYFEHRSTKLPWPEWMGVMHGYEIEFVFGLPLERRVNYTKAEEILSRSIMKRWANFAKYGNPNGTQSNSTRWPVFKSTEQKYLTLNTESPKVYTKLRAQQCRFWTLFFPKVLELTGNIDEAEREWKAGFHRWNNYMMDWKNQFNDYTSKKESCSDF

SMILES	IC50 (Acetylcholinesterase)	IC50 [1]
Cc1ccc(N2CCN(CC(=O)Nc3ccc(-c4csc(C)n4)cc3)CC2)cc1 [2-[4-(4-Methylphenyl)piperazine-1-yl]-N-[4-(2-methylthiazol-4-yl)phenyl]acetamide (5e)]	> 100 µM	> 100 µM
Cc1nc(-c2ccc(NC(=O)CN3CCN(C4CCCCC4)CC3)cc2)cs1 [2-(4-Cyclohexylpiperazine-1-yl)-N-[4-(2-methylthiazol-4-yl)pheny])acetamide (5c)]	6.34 µM	> 100 µM
Cc1nc(-c2ccc(NC(=O)CN3CCN(C(=O)c4ccco4)CC3)cc2)cs1 [2-[4-(2-Furoyl)piperazine-1-yl]-N-[4-(2-methylthiazol-4-yl)phenyl]acetamide (5p)]	0.27 µM	> 100 µM
Cc1nc(-c2ccc(NC(=O)CN3CCN(c4ccccc4)CC3)cc2)cs1 [2-(4-Phenylpiperazine-1-yl)-N-[4-(2-methylthiazol-4-yl)phenyl]acetamide (5d)]	> 100 µM	> 100 µM
Cc1cccc(N2CCN(CC(=O)Nc3ccc(-c4csc(C)n4)cc3)CC2)c1 [2-[4-(3-Methylphenyl)piperazine-1-yl]-N-[4-(2-methylthiazol-4-yl)phenyl]acetamide (5j)]	88.4 µM	> 100 µM
Cc1nc(-c2ccc(NC(=O)CN3CCN(c4ccc([N+](=O)[O-])cc4)CC3)cc2)cs1 [2-[4-(4-Nitrophenyl)piperazine-1-yl]-N-[4-(2-methylthiazol-4-yl)pheny]acetamide (5i)]	> 100 µM	> 100 µM
COc1cccc(N2CCN(CC(=O)Nc3ccc(-c4csc(C)n4)cc3)CC2)c1 [2-[4-(3-Methoxyphenyl)piperazine-1-yl]-N-[4-(2-methylthiazol-4-yl)phenyl]acetamide (5k)]	> 100 µM	> 100 µM
COc1ccc(N2CCN(CC(=O)Nc3ccc(-c4csc(C)n4)cc3)CC2)cc1 [2-[4-(4-Methoxyphenyl)piperazine-1-yl]-N-[4-(2-methylthiazol-4-yl)phenyl]acetamide (5f)]	> 100 µM	> 100 µM
Cc1nc(-c2ccc(NC(=O)CN3CCN(Cc4ccccc4)CC3)cc2)cs1 [2-[4-(2-Benzyl)piperazine-1-yl]-N-[4-(2-methylthiazol-4-yl)phenyl]acetamide (5o)]	0.011 µM	> 100 µM
COc1ccccc1N1CCN(CC(=O)Nc2ccc(-c3csc(C)n3)cc2)CC1 [2-[4-(2-Methoxyphenyl)piperazine-1-yl]-N-[4-(2-methylthiazol-4-yl)phenyl]acetamide (5m)]	8.42 µM	> 100 µM
CCN1CCN(CC(=O)Nc2ccc(-c3csc(C)n3)cc2)CC1 [2-(4-Ethylpiperazine-1-yl)-N-[4-(2-methylthiazol-4-yl)pheny])acetamide (5b)]	11.7 µM	> 100 µM
Cc1nc(-c2ccc(NC(=O)CN3CCN(c4ccc(F)cc4)CC3)cc2)cs1 [2-[4-(4-Florophenyl)piperazine-1-yl]-4-[4-(2-methylthiazol-4-yl)phenyl]acetamide (5h)]	> 100 µM	> 100 µM
Cc1nc(-c2ccc(NC(=O)CN3CCN(c4ccccn4)CC3)cc2)cs1 [2-[4-(2-Pyridyl)piperazine-1-yl]-N-[4-(2-methylthiazol-4-yl)phenyl]acetamide (5n)]	0.051 µM	> 100 µM
Cc1nc(-c2ccc(NC(=O)CN3CCN(c4ccccc4C)CC3)cc2)cs1 [2-[4-(2-Methylphenyl)piperazine-1-yl]-N-[4-(2-methylthiazol-4-yl)pheny]acetamide (5l)]	> 100 µM	> 100 µM
Cc1nc(-c2ccc(NC(=O)CN3CCN(C)CC3)cc2)cs1 [2-(4-Methylpiperazine-1-yl)-N-[4-(2-methylthiazol-4-yl)phenyl]acetamide (5a)]	7.12 µM	> 100 µM
Cc1nc(-c2ccc(NC(=O)CN3CCN(c4ccc(Cl)cc4)CC3)cc2)cs1 [2-[4-(4-Chlorophenyl)piperazine-1-yl]-N-[4-(2-methylthiazol-4-yl)phenyl]acetamide (5g)]	> 100 µM	> 100 µM
